pEC50: −log10 of the molar value. Counter-ions that a name gives are not always drawn.
Molecular target: T1, human GPR120 (Homo sapiens, UniProt Q5NUL3)
T1 construct: expressed in transfected cells; host or cells: CHO-K1
T1 sequence (Q5NUL3 1-361): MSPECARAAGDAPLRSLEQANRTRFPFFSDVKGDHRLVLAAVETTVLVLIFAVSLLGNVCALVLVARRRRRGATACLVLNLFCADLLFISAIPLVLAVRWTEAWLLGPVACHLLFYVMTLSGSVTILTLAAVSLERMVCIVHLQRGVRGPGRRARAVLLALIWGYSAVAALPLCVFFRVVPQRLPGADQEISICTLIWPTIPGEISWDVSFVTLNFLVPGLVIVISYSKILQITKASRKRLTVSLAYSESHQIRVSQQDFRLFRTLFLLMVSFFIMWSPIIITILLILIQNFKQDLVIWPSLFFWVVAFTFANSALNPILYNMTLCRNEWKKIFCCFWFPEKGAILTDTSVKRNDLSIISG
Assay: Human GPR120 IP1 assay (inositol phosphate turnover)
Assay type: cell-based
Details: IP1 accumulation in CHO-K1 cells stably expressing the short form of human GPR120
From the text: The binding of small molecule agonists to the G-protein-coupled receptor GPR120 activates phospholipase C, and leads to the generation of inositol 1,4,5-trisphosphate (InsP3 or IP3). IP3 is subsequently de-phosphorylated to IP1, which accumulates in cells and is stable in the presence of lithium chloride.
In the present method, agonist-induced activation of the human and rat GPR120 receptor was monitored by measuring the accumulation of IP1 in CHO-K1 cells that were stably expressing the short form of human GPR120 (Accession #NM_001195755) or HEK293 cells stably expressing rat GPR120 (Accession #NM_001047088). Following agonist addition, GPR120 activation and subsequent accumulation of IP1 was measured using a homogeneous Time Resolved Fluorescence-based ELISA commercially available from CisBio (IP-one ELISA Kit). The IP-One ELISA was a competitive immunoassay which uses IP1 labeled with […] and a terbium cryptate-labeled anti-IP1 monoclonal antibody. […] The signal loss was then back calculated to IP1 concentration using an IP1 standard curve. Determination of IP1 concentration was a direct measure of GPR120 activation and was used to determine compound potency (EC50).
Human GPR120 stable cell-lines were generated in CHO cells. The expression plasmids were transfected using lipofectamine (Life Technologies) following manufacturer's instructions. Stable cell-lines were generated following drug selection and single cell cloning. Rat GPR120 stable cell-lines were generated in HEK cells using the Jump-In™ cell engineering platform (Life Technologies) following manufacturer's instructions. Stable cell-lines were generated following drug selection and single cell cloning.
The assay was performed in 384-well format. CHO cells stably expressing human GPR120 were plated at 20,000 cells per well in growth medium (DMEM/F12, 10% fetal calf serum). HEK293 cells stably expressing rat GPR120 were plated at […] per well in growth medium (DMEM, 10% fetal calf serum). Cell plates were then incubated 16 hours at 37 degrees in a 5% CO2 incubator. Measurement of Inositol Phosphate Turnover (IP1) was performed using the CisBio IP-One kit (Part number 62IPAPEB). After the 16 hour incubation, the growth media was removed by centrifugation using the BlueWasher (AusWasher GUI Ver. v1.0.1.8) Protocol #21-“Light Dry” and 10 μl of stimulation buffer (prepared as described in the kit) was added to each well. In a separate plate, compounds were diluted in DMSO (200-fold over the final concentration in the assay well) and 50 nl was acoustically transferred to the appropriate well in the assay cell plate. The plates were then incubated for 60 minutes at 37 degrees in a 5% CO2 incubator. 10 μl of detection buffer (also prepared as described in the IP-One kit) was added to each well and the plates were incubated at room temperature for 60 minutes in the dark. The plates were then read in a Perkin ElmerEnVision or equivalent reader able to measure FRET. Fluorescent ratio of emission at 665 and 620 nm was then converted to the IP1 concentration by back calculating from an IP1 standard curve prepared at the time of the assay. The data was normalized to % activity using a reference compound, and the EC50 values were determined using a standard 4-parameter fit.

Row | SMILES | pEC50
1 | Oc1cc(-c2cnc(O[C@H]3C[C@@H](c4ccc(-c5cnco5)cc4)C3)cn2)on1 [Example 16, 5-[5-({cis-3-[4-(1,3-oxazol-5-yl)phenyl]cyclobutyl}oxy)pyrazin-2-yl]isoxazol-3-ol] | 7.19
2 | Oc1cc(-c2cnc(O[C@H]3C[C@@H](c4ccc(-c5cc(F)ccn5)cc4)C3)cn2)on1 [Example 17, ammonium 5-[5-({cis-3-[4-(4-fluoropyridin-2-yl)phenyl]cyclobutyl}oxy)pyrazin-2-yl]isoxazol-3-olate] | 7.07
3 | CCOc1cc([C@H]2C[C@H](Oc3cnc(-c4cc(O)no4)cn3)C2)ccn1 [Example 27, sodium 5-(5-{[trans-3-(2-ethoxypyridin-4-yl)cyclobutyl]oxy}pyrazin-2-yl)isoxazol-3-olate] | 6.75
4 | Oc1cc(-c2ccc(O[C@H]3C[C@H](c4ccnc(OC5CC5)c4)C3)nc2)on1 [Example 31, sodium 5-[6-({trans-3-[2-(cyclopropyloxy)pyridin-4-yl]cyclobutyl}oxy)pyridin-3-yl]isoxazol-3-olate] | 7.21
5 | Oc1cc(-c2ccc(O[C@H]3C[C@@H](c4ccnc(OC5CC5)c4)C3)nc2)on1 [Example 32, 5-[6-({cis-3-[2-(cyclopropyloxy)pyridin-4-yl]cyclobutyl}oxy)pyridin-3-yl]isoxazol-3-ol] | 7.80
6 | Oc1cc(-c2cnc(O[C@H]3C[C@@H](c4ccnc(OC5CC5)c4)C3)cn2)on1 [Example 34, 5-[5-({cis-3-[2-(cyclopropyloxy)pyridin-4-yl]cyclobutyl}oxy)pyrazin-2-yl]isoxazol-3-ol] | 7.60
7 | Oc1cc(-c2ccc(OC3CC(c4ccccc4)C3)nc2)on1 (stereo not shown) [Example 36, 5-{6-[(3-phenylcyclobutyl)oxy]pyridin-3-yl}isoxazol-3-ol trifluoroacetate] | 7.39
8 | Oc1cc(-c2cnc(O[C@H]3C[C@@H](c4ccc(Cl)cc4)C3)cn2)on1 [Example 38, sodium 5-(5-{[cis-3-(4-chlorophenyl)cyclobutyl]oxy}pyrazin-2-yl)isoxazol-3-olate] | 7.77
9 | Oc1cc(-c2cnc(O[C@H]3C[C@@H](c4ccc5c(c4)OC(F)(F)O5)C3)cn2)on1 [Example 40, 5-(5-{[cis-3-(2,2-difluoro-1,3-benzodioxol-5-yl)cyclobutyl]oxy}pyrazin-2-yl)isoxazol-3-ol] | 7.80
10 | Oc1cc(-c2cnc(O[C@H]3C[C@@H](c4cccc(OC(F)F)c4F)C3)cn2)on1 [Example 41, 5-[5-({cis-3-[3-(difluoromethoxy)-2-fluorophenyl]cyclobutyl}oxy)pyrazin-2-yl]isoxazol-3-ol] | 7.77
11 | Oc1cc(-c2cnc(O[C@H]3C[C@@H](c4ccc5c(c4)OCCO5)C3)cn2)on1 [Example 42, ammonium 5-(5-{[cis-3-(2,3-dihydro-1,4-benzodioxin-6-yl)cyclobutyl]oxy}pyrazin-2-yl)isoxazol-3-olate] | 7.07
12 | Oc1cc(-c2cnc(O[C@H]3C[C@@H](c4cccc5ccccc54)C3)cn2)on1 [Example 43, 5-{5-[(cis-3-naphthalen-1-ylcyclobutyl)oxy]pyrazin-2-yl}isoxazol-3-ol] | 6.89

Now from value to compound:

Row | pEC50 | SMILES
13 | 7.39 | Oc1cc(-c2ccc(OC3CC(c4ccc(C5CC5)cc4)C3)nc2)on1 (stereo not shown) [Example 15, 5-(6-{[3-(4-cyclo-propyl-phenyl)cyclobutyl]oxy}pyridin-3-yl)isoxazol-3-ol]
14 | 6.87 | Oc1cc(-c2cnc(O[C@H]3C[C@@H](c4ccc(-c5ccc(C(F)(F)F)nc5)cc4)C3)cn2)on1 [Example 18, 5-{5-[(cis-3-{4-[6-(trifluoromethyl)pyridin-3-yl]phenyl}cyclobutyl)oxy]pyrazin-2-yl}isoxazol-3-ol]
15 | 7.12 | Oc1cc(-c2cnc(O[C@H]3C[C@@H](c4cccc(-c5cnco5)c4)C3)cn2)on1 [Example 19, ammonium 5-[5-({cis-3-[3-(1,3-oxazol-5-yl)phenyl]-cyclobutyl}oxy)pyrazin-2-yl]isoxazol-3-olate]
16 | 7.38 | Oc1cc(-c2cnc(O[C@H]3C[C@@H](c4ccc(C5CC5)cc4)C3)cn2)on1 [Example 20, ammonium 5-(5-{[cis-3-(4-cyclopropylphenyl)cyclobutyl]oxy}pyrazin-2-yl)isoxazol-3-olate]
17 | 6.60 | Oc1cc(-c2ccc(O[C@H]3C[C@@H](c4ccnc(C(F)(F)F)c4)C3)nc2)on1 [Example 21, 5-(3-hydroxyisoxazol-5-yl)-2-({cis-3-[2-(trifluoromethyl)-pyridin-4-yl]cyclobutyl}-oxy)pyridinium chloride]
18 | 7.04 | CCOc1ccc([C@H]2C[C@@H](Oc3ccc(-c4cc(O)no4)cn3)C2)cn1 [Example 22, 2-ethoxy-5-(cis-3-{[5-(3-hydroxyisoxazol-5-yl)pyridin-2-yl]oxy}cyclobutyl)-pyridinium chloride]
19 | 7.72 | Oc1cc(-c2ccc(O[C@H]3C[C@@H](c4ccc(C(F)(F)F)cn4)C3)nc2)on1 [Example 24, 5-[6-({cis-3-[5-(trifloromethyl)pyridin-2-yl]cyclobutyl}oxy)pyridin-3-yl]isoxazol-3-ol]
20 | 7.34 | Oc1cc(-c2cnc(O[C@H]3C[C@@H](c4ccc(C(F)(F)F)cn4)C3)cn2)on1 [Example 25, 5-[5-({cis-3-[5-(trifluoromethyl)pyridin-2-yl]cyclobutyl}oxy)pyrazin-2-yl]isoxazol-3-ol]
21 | 7.07 | Oc1cc(-c2cnc(O[C@H]3C[C@@H](c4ccc(OC(F)(F)F)cn4)C3)cn2)on1 [Example 26, 5-[5-({cis-3-[5-(trifluoromethoxy)pyridin-2-yl]cyclobutyl}oxy)pyrazin-2-yl]isoxazol-3-ol]
22 | 6.77 | Oc1cc(-c2cnc(O[C@H]3C[C@H](c4ccc(C5CC(F)(F)C5)cc4)C3)cn2)on1 [Example 29, 5-[5-({trans-3-[4-(3,3-difluorocyclobutyl)phenyl]cyclobutyl}oxy)pyrazin-2-yl]isoxazol-3-ol]
23 | 6.81 | Oc1cc(-c2cnc(O[C@H]3C[C@@H](c4ccc(C5CC(F)(F)C5)cc4)C3)cn2)on1 [Example 30, 5-[5-({cis-3-[4-(3,3-difluorocyclobutyl)phenyl]cyclobutyl}oxy)pyrazin-2-yl)isoxazol-3-ol]
24 | 6.49 | Oc1cc(-c2cnc(O[C@H]3C[C@H](c4ccnc(OC5CC5)c4)C3)cn2)on1 [Example 33, sodium 5-[5-({trans-3-[2-(cyclopropyloxy)pyridin-4-yl]cyclobutyl}oxy)pyrazin-2-yl]isoxazol-3-olate]
25 | 8.00 | Oc1cc(-c2ccc(OC3CC(c4ccc(F)cc4)C3)nc2)on1 (stereo not shown) [Example 35, 5-(6-{[3-(4-fluorophenyl)cyclobutyl]oxy}pyridin-3-yl)isoxazol-3-ol trifluoroacetate]
26 | 6.79 | Oc1cc(-c2ccc(O[C@H]3C[C@@H](C4CCCCC4)C3)nc2)on1 [Example 37, 2-[(cis-3-cyclohexylcyclobutyl)oxy]-5-(3-hydroxyisoxazol-5-yl)pyridinium chloride]
27 | 7.32 | Oc1cc(-c2cnc(O[C@H]3C[C@@H](c4cc(OC5CC5)ccc4F)C3)cn2)on1 [Example 39, 5-[5-({cis-3-[5-(cyclopropyloxy)-2-fluorophenyl]cyclobutyl}oxy)pyrazin-2-yl]isoxazol-3-ol]
28 | 7.22 | Cc1cc([C@H]2C[C@@H](Oc3cnc(-c4cc(O)no4)cn3)C2)ccc1OC(F)(F)F [Example 44, 5-[5-({cis-3-[3-methyl-4-(trifluoromethoxy)phenyl]cyclobutyl}oxy)pyrazin-2-yl]isoxazol-3-ol]
